KI (inactivation) data for 25 compounds are collected here from PMC12060211, “Development of Efficient Covalent Inactivators of a Fungal Aspartate Semialdehyde Dehydrogenase” (Drug Development Research, 2025).

This assay concerns the target T1, CalASADH (C. albicans ASADH, aspartate semialdehyde dehydrogenase) (Candida albicans, UniProt Q5ALM0).
T1 construct: gene HOM2; catalytic Cys-156; PDB 3hsk used as docking model of the same protein; ATCC 10231 is only the growth-test strain
T1 sequence (Q5ALM0 1-365): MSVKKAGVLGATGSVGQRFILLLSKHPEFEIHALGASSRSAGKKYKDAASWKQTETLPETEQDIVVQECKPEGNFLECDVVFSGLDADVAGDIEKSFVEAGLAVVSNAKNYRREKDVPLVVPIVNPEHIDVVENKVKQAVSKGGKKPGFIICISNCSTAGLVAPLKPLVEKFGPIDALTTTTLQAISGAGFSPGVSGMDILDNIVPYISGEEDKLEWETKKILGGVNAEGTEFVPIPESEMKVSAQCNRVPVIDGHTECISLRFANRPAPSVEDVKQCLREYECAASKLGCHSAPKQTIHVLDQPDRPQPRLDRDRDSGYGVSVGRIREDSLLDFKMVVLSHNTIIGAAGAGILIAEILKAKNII
Description: time-dependent inactivation, NADPH formation at […] nm, kobs = kinact[I]/(Ki+[I]). It is filed as biochemical. Conditions: covalent; irreversible inactivation; residual activity read at pH 8.6 with 0.3 mM L-aspartate-beta-semialdehyde, 20 mM phosphate, 1.5 mM NADP.

`CS(=O)(=O)/C=C/c1ccc(O)cc1` [compound 1, vinyl sulfone, R1 methyl, R2 1,4-phenol] had a KI (inactivation) of 538000 ± 300000 nM.

In turn, `CC(=O)Nc1ccc(/C=C/S(C)(=O)=O)cc1` [compound 2, vinyl sulfone, R1 methyl, R2 acetanilide] yielded a KI (inactivation) of 203000 ± 83000 nM.

In turn, `CS(=O)(=O)/C=C/c1ccc(C(N)=O)cc1` [compound 3, vinyl sulfone, R1 methyl, R2 benzamide] yielded a KI (inactivation) of 531000 ± 134000 nM.

In turn, `CS(=O)(=O)/C=C/c1ccc(O)cn1` [compound 4, vinyl sulfone, R1 methyl, R2 5-hydroxy-2-pyridine] registered a KI (inactivation) of 610 ± 91 nM.

As for `CS(=O)(=O)/C=C/c1ccc([N+](=O)[O-])s1` [compound 5, vinyl sulfone, R1 methyl, R2 5-nitrothiophene], the KI (inactivation) worked out at 2100 ± 600 nM.

Turning to `CS(=O)(=O)/C=C/c1ccnc2ccccc12` [compound 6, vinyl sulfone, R1 methyl, R2 4-quinoline], the KI (inactivation) is 4400 ± 890 nM.

In turn, `CS(=O)(=O)/C=C/c1ccc2ccccc2n1` [compound 7, vinyl sulfone, R1 methyl, R2 2-quinoline] came in with a KI (inactivation) of 960 ± 240 nM.

Regarding `CS(=O)(=O)/C=C/c1cccc2cnccc12` [compound 8, vinyl sulfone, R1 methyl, R2 5-isoquinoline], the KI (inactivation) was 650 ± 110 nM.

`O=S(=O)(/C=C/c1cccc2cnccc12)C1CC1` [compound 9, vinyl sulfone, R1 cyclopropyl, R2 5-isoquinoline] returned a KI (inactivation) of 2480 ± 410 nM.

The compound `O=S(=O)(/C=C/c1ccncc1)c1ccccn1` [compound 10, vinyl sulfone, R1 2-pyridinyl, R2 4-pyridinyl] yielded a KI (inactivation) of 2200 ± 180 nM.

The compound `O=S(=O)(/C=C/c1ccncc1)N1CCOCC1` [compound 11, vinyl sulfonamide, R1 2-morpholino, R2 4-pyridinyl] gave a KI (inactivation) of 1170 ± 130 nM.

In turn, `CS(=O)(=O)/C=C/C(N)=O` [compound 12, sulfonyl acrylamide, R1 methyl, R2 amide] gave a KI (inactivation) of 2700 ± 620 nM.

As to `NC(=O)/C=C/S(=O)(=O)c1ccccc1` [compound 13, sulfonyl acrylamide, R1 phenyl, R2 amide], the KI (inactivation) was 2300 ± 320 nM.

In the case of `CS(=O)(=O)/C=C/C[C@H](N)C(=O)O` [compound 14, vinyl sulfone, R1 methyl, R2 alanyl], the KI (inactivation) was determined as 7600 ± 1200 nM.

As to `CN(C)S(=O)(=O)/C=C/C[C@H](N)C(=O)O` [compound 15, vinyl sulfonamide, R1 dimethylamino, R2 alanyl], the KI (inactivation) came out at 27900 ± 4300 nM.

The compound `N[C@@H](C/C=C/S(=O)(=O)Cc1ccccc1)C(=O)O` [compound 16, vinyl sulfone, R1 benzyl, R2 alanyl] showed a KI (inactivation) of 1800 ± 820 nM.

With `CC(C)S(=O)(=O)/C=C/C[C@H](N)C(=O)O` [compound 17, vinyl sulfone, R1 isopropyl, R2 alanyl], the KI (inactivation) was found to be 760 ± 150 nM.

Compound `N[C@@H](C/C=C/S(=O)(=O)C1CC1)C(=O)O` [compound 18, vinyl sulfone, R1 cyclopropyl, R2 alanyl] displayed a KI (inactivation) of 390 ± 93 nM.

Consider `CC(=O)CS(C)(=O)=O` [compound 19, sulfonyl ketone, R1 methyl, R2 methyl], for which the KI (inactivation) worked out at 31700 ± 4900 nM.

`CS(=O)(=O)CC(=O)c1ccncc1` [compound 20, sulfonyl ketone, R1 methyl, R2 4-pyridinyl] came in with a KI (inactivation) of 59000 ± 22000 nM.

`CS(=O)(=O)CC(=O)c1cccnc1` [compound 21, sulfonyl ketone, R1 methyl, R2 3-pyridinyl] displayed a KI (inactivation) of 25900 ± 6600 nM.

`CS(=O)(=O)CC(=O)c1ccccn1` [compound 22, sulfonyl ketone, R1 methyl, R2 2-pyridinyl]: the KI (inactivation) came to 6080 ± 760 nM.

Turning to `CS(=O)(=O)CC(=O)c1ccccc1` [compound 23, sulfonyl ketone, R1 methyl, R2 phenyl], the KI (inactivation) turned out to be 2200 ± 770 nM.

Consider `O=C(/C=C/c1ccncc1)N1CCOCC1` [compound 24, acrylamide, R1 morpholino, R2 4-pyridinyl], for which the KI (inactivation) is 4410 ± 850 nM.

In turn, `NC(=O)/C=C/c1ccncc1` [compound 25, acrylamide, R1 amino, R2 4-pyridinyl] registered a KI (inactivation) of 3790 ± 1600 nM.
